Reference: ChEMBL document CHEMBL1123701, “Synthesis and quantitative structure-activity relationship analysis of N-triiodoallyl- and N-iodopropargylazoles. New antifungal agents” (1987)
In brackets after ≈: the same amount, converted by molar mass.

What follows are compounds tested on Aspergillus fumigatus (assay: Antifungal activity against Aspergillus fumigatus Saito strain).
Format: functional

| Compound | MIC [µg/mL] |
| --- | --- |
| IC#CCn1nnc(-c2ccccc2)n1 | 0.2 (≈ 0.645 µM) |
| O=C(O)c1ccc(-c2nnn(CC#CI)n2)cc1 | > 100 |
| Fc1ccc(-c2nnn(CC(I)=C(I)I)n2)cc1 | > 100 |
| Clc1ccccc1C(c1ccccc1)(c1ccccc1)n1ccnc1 [CLOTRIMAZOLE] | 1.56 (≈ 4.52 µM) |
| Clc1cc(Cl)c(OCC#CI)cc1Cl [HALOPROGIN] | 3.13 (≈ 8.66 µM) |

The compounds below were run on Candida albicans (assay: Antifungal activity against Candida albicans C-A-24 strain).
Format: functional

| Compound | MIC [µg/mL] |
| --- | --- |
| IC#CCn1nnc(-c2ccccc2)n1 | 0.78 (≈ 2.52 µM) |
| O=C(O)c1ccc(-c2nnn(CC#CI)n2)cc1 | > 100 |
| Fc1ccc(-c2nnn(CC(I)=C(I)I)n2)cc1 | > 100 |
| Clc1ccccc1C(c1ccccc1)(c1ccccc1)n1ccnc1 [CLOTRIMAZOLE] | 6.25 (≈ 18.1 µM) |
| Clc1cc(Cl)c(OCC#CI)cc1Cl [HALOPROGIN] | 3.13 (≈ 8.66 µM) |

The compounds below were run on Cryptococcus neoformans (assay: Antifungal activity against Cryptococcus neoformans Cr-1 strain).
Format: functional

| Compound | MIC [µg/mL] |
| --- | --- |
| IC#CCn1nnc(-c2ccccc2)n1 | 1.56 (≈ 5.03 µM) |
| O=C(O)c1ccc(-c2nnn(CC#CI)n2)cc1 | 100 (≈ 282 µM) |
| Fc1ccc(-c2nnn(CC(I)=C(I)I)n2)cc1 | > 100 |
| Clc1ccccc1C(c1ccccc1)(c1ccccc1)n1ccnc1 [CLOTRIMAZOLE] | 1.56 (≈ 4.52 µM) |
| Clc1cc(Cl)c(OCC#CI)cc1Cl [HALOPROGIN] | 1.56 (≈ 4.32 µM) |

What follows are compounds tested on Trichophyton interdigitale (assay: Antifungal activity towards Trichophyton interdigitale).
Format: functional

| Compound | MIC [µg/mL] |
| --- | --- |
| IC#CCn1nnc(-c2ccccc2)n1 | 0.39 (≈ 1.26 µM) |
| O=C(O)c1ccc(-c2nnn(CC#CI)n2)cc1 | 6.25 (≈ 17.7 µM) |
| Fc1ccc(-c2nnn(CC(I)=C(I)I)n2)cc1 | 0.78 (≈ 1.34 µM) |
| Clc1ccccc1C(c1ccccc1)(c1ccccc1)n1ccnc1 [CLOTRIMAZOLE] | 0.39 (≈ 1.13 µM) |
| Clc1cc(Cl)c(OCC#CI)cc1Cl [HALOPROGIN] | 0.39 (≈ 1.08 µM) |

The compounds below were run on Trichophyton benhamiae (assay: Antifungal activity towards Trichophyton mentagrophytes 530324 strain).
Format: functional, Arthroderma benhamiae

| Compound | MIC [µg/mL] |
| --- | --- |
| IC#CCn1nnc(-c2ccccc2)n1 | 0.2 (≈ 0.645 µM) |
| O=C(O)c1ccc(-c2nnn(CC#CI)n2)cc1 | 25 (≈ 70.6 µM) |
| Fc1ccc(-c2nnn(CC(I)=C(I)I)n2)cc1 | 0.1 (≈ 0.172 µM) |
| Clc1ccccc1C(c1ccccc1)(c1ccccc1)n1ccnc1 [CLOTRIMAZOLE] | 0.39 (≈ 1.13 µM) |
| Clc1cc(Cl)c(OCC#CI)cc1Cl [HALOPROGIN] | 0.39 (≈ 1.08 µM) |
